Entries after “also recorded” stand apart in the source; their conditions may differ.

The test system of assay [1] is muscle defect in calf or anterior tibial muscles. Description: muscle defect mouse model, systemic or local administration of RAR agonist. Format: in vivo. The settings on record: for muscle repair: 100 μg/gavage/day at day 8, 10 and 12 from injury, 4 weeks after surgery. The source says:
Histological Procedures. To inspect muscle tissue structure, samples were fixed in 4% PFA and embedded in paraffin. Five μm serial sections were stained by either H&E (http://www.ihcworld.com/_protocols/special_stains/HE_Mayer.htm) or Masson's trichrome staining solution (http://www.ihcworld.com/_protocols/special_stains/masson_trichrome.htm). To detect adipose tissue, 4% PFA fixed samples were equilibrated in 20% sucrose in PBS, embedded in OCT compound and then sectioned by cryostat. Ten μm cryosections were dried, rehydrated and then stained with Oil-red O (http://www.ihcworld.com/_protocols/special_stains/oil_ red o.htm).
Immuno-Fluorescence. For the detection of various antigens in tissue sections, 5 μm paraffin sections were de-paraffinized, re-hydrated and then treated with 0.1% pepsin in 0.02 N HCl for 15 min at 37° C. Sections were washed three times in PBS-T and blocked in 10% normal goat serum with 0.3% BSA. Sections were incubated with 1st antibody, washed three times with PBS-T and then incubated with 2nd antibody. The list of antigens, antibodies and their dilutions are shown below.
Local and Systemic Administration of RAR Agonist. Systemic administration of RAR agonist was carried out by gavage as described previously (Shimono et al. J. Orthop. Res. 28:271-277, 2010). Local delivery of RAR agonist was done by injecting RAR agonist (dissolved in DMSO) using Hamilton syringe 87943 with 26G needle.
A muscle defect mouse model was used to investigate the muscle repair stimulation by administration of RAR gamma-agonists. A round-shaped defect was created with an electric cautery in calf or anterior tibial muscles in 8 week-old mice resulting in a 2.0 mm×2.0 mm×2.0 mm defect.
Round-shaped defects were created in calf-muscle tissue of 8 weeks old mice as above (one muscle defect/mouse). […] Tissue was collected for histological analysis on day 14.
[…] Tissues were collected for histological analysis at 2 and 4 weeks. Macro-photos of injured muscle tissue collected from control and RAR gamma-agonist (CD1530)-treated mice were taken at 4 weeks after injury.
Histological analysis of skeletal muscle tissue was performed 4 weeks after injury. Serial transverse sections of muscle tissue specimens collected 4 weeks after injury (same samples as discussed directly above) were stained with Masson's trichrome or processed for immuno-staining with antibodies to laminin (an extracellular protein abundant around muscle cells). […] To evaluate and quantify the changes of skeletal muscle tissue structure, images of trichrome-stained serial sections were taken and the relative amounts of muscle fiber, adipose and fibrous tissues were determined in multiple defined areas by ImagePro software. The analyzed areas were 9×9 grids each (about 3×3 mm) that included the original injured site (2×2 mm).
The effects of various retinoid agonists on skeletal muscle repair were examined Macro photographs were taken of muscle injury sites at the 4-week time point.

The test system of assay [2] is RXR receptors. The settings on record: cited from earlier work.
The subject of assay [3] is mouse bone marrow-derived mesenchymal stem cell (BMSC) cultures. As to the kind of experiment: myogenic differentiation in mouse BMSC cultures. Format: cell-based. The settings on record: 7 days, 5% FBS DMEM. The method, then: MSCs were isolated as described previously (ref) with minor modification. Briefly, mouse bone marrow cells (1−2×10^7) harvested from long bones of 4-6 weeks old mice were seeded onto 100-mm culture dishes, incubated for 3 hours at 37° C. to allow attachment of adherent cells, and then rinsed twice with PBS to remove the nonadherent cells. The bone marrow-derived MSCs formed adherent colonies after 12-15 days of culture. Primary cultures were passed to disperse the colony-forming cells (passage 1). The cells were then subcultured again when they reached 70% confluent. Cells were maintained in α-MEM (Gibco BRL; Invitrogen Corp.) containing 20% fetal bovine serum (FBS; Equitech-Bio Inc.), 2 mM L-glutamine, a combination of 100 U/ml penicillin and 100 μg/ml streptomycin (Biofluids Inc.), and 55 μM 2-mercaptoethanol (Gibco BRL; Invitrogen Corp.) before the first passage. After the first passage, cells were maintained in 10% FBS, α-MEM unless indicated.
The differential effects of retinoid agonists on myogenic differentiation in mouse bone marrow-derived mesenchymal stem cell (BMSC) cultures were investigated. BMSCs were prepared from femurs and tibias of 6 week-old mice by standard methods and maintained in 5% FBS DMEM for 7 days in presence of 0.1% DMSO (vehicle: Control), 1 μM all-trans retinoic acid (RA) (commercially available from Sigma), 1 μM RAR alpha-agonist (obtained from NuRx Pharmaceuticals) or 30 nM RAR gamma-agonist (CD1530, commercially available).

Assay [4] has as its system RAR subtypes. The settings on record: cited from earlier work.
Assay [5] relates to mesenchymal stem cell line. As to the kind of experiment: MyoD and Myf5 immunostaining in mesenchymal stem cell (MSC) cultures. Format: cell-based. The settings on record: 100 nM, 10 days. The method, then: Cells from a mesenchymal stem cell line were cultured for 10 days in the presence or absence of RAR gamma-agonist (CD1530, 100 nM). Cultures were processed for immunostaining with MyoD or Myf5 antibodies or stained with nuclear dye DAPI. […] Results indicated an increase in MyoD and Myf5 levels by the RAR gamma-agonist in mesenchymal stem cell (MSC) cultures.

Setting [6] is: 900 μg by gavage on day 8, 10 and 12, 4 weeks after injury.
Where [7] appears, read: 300 μg by gavage on day 8, 10 and 12, 4 weeks after injury.
Setting [8] is: 100 ng on day 5, 7 and 9, 4 weeks after injury.
Where [9] appears, read: 300 μg/day by gavage on day 8, 10 and 12, 4 weeks after injury.

On to `O=C(O)c1ccc2cc(-c3ccc(O)c(C45CC6CC(CC(C6)C4)C5)c3)ccc2c1` [CD437, 6-(4-Hydroxy-3-tricyclo[3.3.1.13,7]dec-1-ylphenyl)-2-naphthalenecarboxylic acid], for which the muscle repair result in assay [1] was “induced effective muscle repair”.

Turning to `CC1=C(/C=C/C(C)=C\C=C\C(C)=C\C(=O)O)C(C)(C)CCC1` [9-cis retinoic acid], the “binding to the RXR receptors” value in assay [2] was “natural ligand”.

For `CC1(C)CCC(C)(C)c2c1cc(C(=O)Nc1cc(F)c(C(=O)O)c(F)c1)c(O)c2Cl` [NRX195183], in assay [3] (1 μM), the “formation of elongated multinucleated muscle cells” value (“formation” below) was “formed only in RAR gamma-agonist treated cultures”. Besides, in assay [1] (setting [6]), the “macroscopic appearance of injury site” value was “still clearly visible as large whitish spots” and the “tissue composition (histomorphometric quantification)” value is “did not improve tissue composition”.

For the compound `CC1(C)CCC(C)(C)c2cc(Cn3cccn3)c(/C=C/c3ccc(C(=O)O)cc3)cc21` [Palovarotene, 4-[(E)-2-[5,6,7,8-Tetrahydro-5,5,8,8-tetramethyl-3-(1H-pyrazol-1-ylmethyl)-2-naphthalenyl]-ethenyl]-benzoic acid], in assay [1], the muscle repair entry is on record as “induced effective muscle repair”.

`CC1=C(/C=C/C(C)=C/C=C/C(C)=C/C(=O)O)C(C)(C)CCC1` [RA, all-trans retinoic acid]: the “formation” value in assay [3] (1 μM) is “formed only in RAR gamma-agonist treated cultures”. Further, the fibrous tissue area result in assay [1] (300 μg by gavage on day 8, 10 and 12, 4 weeks) was “significant increase of fibrous tissue area”. Besides, in assay [1] (setting [7]), the “macroscopic appearance of injury site” value was “still clearly visible as large whitish spots”. The compound also came in with a muscle fiber area in assay [1] (300 μg by gavage on day 8, 10 and 12, 4 weeks, control 33%, normal 90%) of 54%. For the same compound, the “binding affinity to the three RAR subtypes” value in assay [4] is “approximately equal affinity”. The “binding to the RXR receptors” value in assay [2] is listed as “does not bind”.

On to `O=C(O)c1ccc(-c2ccc3cc(O)c(C45CC6CC(CC(C6)C4)C5)cc3c2)cc1` [CD1530, 4-(6-Hydroxy-7-tricyclo[3.3.1.13,7]dec-1-yl-2-naphthalenyl)benzoic acid], for which the “formation” value in assay [3] (30 nM) is “Many elongated multinucleated muscle cells formed”. In assay [5], the Myf5 immunostaining entry is given as “clearly present” and the MyoD immunostaining entry is given as “clearly present”. The “HE histology of muscle defect” value in assay [1] (100 ng on day 1, 3, 5, 7 and 9, 4 weeks after injury) is “decreased adipose and fibrous scar tissue formation but left a large indentation”. The “HE histology of muscle defect” value in assay [1] (100 ng on day 1, 3 and 5, 4 weeks after injury) was “decreased adipose and fibrous scar tissue formation but left a large indentation”. Further, in assay [1] (setting [8]), the “indentation at muscle defect” value is recorded as “much reduced indentation”; the “quality and amount of newly formed muscle tissue” value is reported as “best”. The “repair of muscle defects after local administration” value in assay [1] (3 μg injected subcutaneously around the injury site on day 8 and 10, 4 weeks) is on record as “almost completely repaired”. In assay [1] (setting [7]), the “macroscopic appearance of injury site” value is “almost no visible sign of the original defect; also recorded: essentially invisible”; the “tissue composition (relative amounts of muscle fiber, adipose and fibrous tissues, ImagePro)” value is “largely restored the tissue composition; also recorded: almost normal”. Further, in assay [1] (setting [9]), the “anti-laminin staining of repair tissue” value is “stained strongly with anti-laminin antibodies” and the “repair of muscle injury (Masson's trichrome sections)” value is “almost completely repaired”. In addition, in assay [1] (Day 5-9 treated group, Masson's trichrome, FIG. 6), the “amount of adipose and fibrous tissue (histo-morphometric analysis, ImagePro)” value was “least amount of adipose and fibrous tissue among all injured groups”. Besides, the “histological analysis of muscle defect” value in assay [1] (anterior tibial muscle, 300 μg/day by gavage on day 8, 10 and 12, 2 and 4 weeks) was “filled with muscle fibers aligned along the major longitudinal axis of the anterior tibial muscle”. The “myosin heavy chain (MHC) immunostaining of defect site” value in assay [1] (calf muscle, 300 μg/day by gavage on day 8, 10 and 12, day 14) was “many of these cells were MHC positive”. The “histology of muscle defect site” value in assay [1] (calf muscle, 300 μg/day by gavage on day 8, 10 and 12 after injury, day 14) is “filled with many elongated muscle-like cells”. In addition, the “HE histology of muscle defect” value in assay [1] (treated at days 1-3, 4 weeks after injury) was “decreased adipose and fibrous scar tissue formation but left a partial defect”. Further, in assay [1] (treated at days 5-7, 4 weeks after injury), the “HE histology of muscle defect” value is recorded as “completely filled with newly generated muscle fibers”.
